Assay results published in patent publication US7855232B2, “Organoselenium compound for cancer chemoprevention” (LKT Laboratories, Inc., priority 2001, dated 2010).
Marks after values point to notes of the source that are not given here.

Assays:
Type in all cases: in vivo, Female A/J mice
[1] = tested on: Glutathione S-Transferase; assay: Glutathione S-transferase (GST) activity in tissue cytosol of treated mice, CDNB substrate; details: for Ratio Test/con (GST): gavage; for GST act.: gavage in corn oil
Procedure: The activity of cytosolic was assayed according to the method of Habig et al. using 1-chloro-2,4-dinitrobenzene (CDNB) as the substrate. Habig et al, J. Biol. Chem. 249:7130-7139 (1974). The complete solution contains, in a total volume of 2.0 mL, 0.1 M phosphate buffer, pH 6.5, 5 mM glutathione, 1 mM CDNB, and 20 μL of the cytosol. The reaction was monitored at 340 nm in a Beckman Model DU65 UV-VIS spectrophotometer. Assays were performed at 30° C. Complete assay mixture without the cytosolic enzyme was used as the reference blank. Data as analyzed by the Student's “t” test and P values were obtained in comparison to the control.

GSH = assay: Glutathione (GSH) concentration in tissues of treated mice, HPLC; details: for Ratio Test/con (GSH): gavage; for GSH conc.: gavage in corn oil
Procedure: GSH was quantitated by modification of the procedure Siller-Cepeda et al. Plant Cell Physiol. 32:1179-1185 (1991). Aliquots of tissue homogenates were mixed with equal volumes of 20% PCA containing 2 mM BPDS. Vortex, centrifuge at 7800×g for 15 minutes at 4° C. and 250 μl supernatant transferred into a microfuge tube containing 25 μl of γ-glu-glu as internal standard. The samples were carboxymethylated with 25 μl of 100 mM iodoacetic acid dissolved in 0.2 mM m-cresol purple sodium salt solution. The pH of the solution was adjusted to 9-10 by adding 350 μl of KOH (2M)-KHCO3 (2.4 M) mixture and incubated in the dark for 15 minutes. After carboxymethylation, the samples were derivatized with 500 μl of 1% dinitrofluorobenzene (DNFB) and kept in the dark at 4° C. overnight. The samples were centrifuged at 13,000×g for 15 minutes, filtered through 0.2 μm filter, and were analyzed with a SHIMADZU two-pump gradient HPLC system. Samples were injected by a SHIMADZU SIL-10AV Autoinjector onto a Varian 3-aminopropyl MICROSORB-MV column (4.6×250 mm) operated at ambient temperature with a flow rate of 1 ml/min. Absorbance of the dinitrophenyl derivatives was monitored at 365 nm. The amount of GSH was calculated from a standard curve using γ-glu-glu as internal standard.

[2] = tested on: UDP-Glucuronosyltransferase (UDP-GT); assay: UDP-glucuronosyltransferase (UDP-GT) activity in liver microsomes of treated mice, o-aminophenol substrate; details: for Ratio Test/con (UDP-GT): gavage; for UDP-GT activity (column head prints GSH conc.): gavage in corn oil
Procedure: Microsomal samples were assayed for enzymatic conjugation by modifying the procedure of Zakim et al., Methods of Biochemical Analysis, ed. David Glick, 21:1-37, (1973). using o-aminophenol as the substrate. The complete assay solution contains, in a total volume of 500 μl, 0.25 M phosphate buffer (pH 7.6), 0.002 M o-aminophenol, 0.05 M UDPGA, 0.125 M magnesium chloride and 100 μl microsomes. The mixture was incubated for 30 minutes. Reactions were stopped by the addition of 500 μl of TCA-sodium phosphate reagent. The precipitated protein was removed, 100 μl of 0.05% sodium nitrite was added to 950 μl of the supernatent solution and allowed to stand for 5 minutes. 100 μl of 0.5% ammonium sulfamate was added, after 5 minutes. 100 μl of 0.12% N-(-1-naphthyl)ethylenediamine dihydrochloride was added and incubated for 2 hours in the dark; and the difference in the optical density between the blanks and the samples were recorded at 555 nm in a Beckman model DU65 UV-VIS spectrophotometer. The UDP-GT activity was calculated using the extinction coefficient 29 mM-1 cm-1 for the coupled product.

[3] = colon, dose 0.02 mmol/Kg body weight
[4] = colon, dose 0.04 mmol/Kg body weight
[5] = forestomach, dose 0.02 mmol/Kg body weight
[6] = forestomach, dose 0.04 mmol/Kg body weight
[7] = liver, dose 0.02 mmol/Kg body weight
[8] = liver, dose 0.04 mmol/Kg body weight
[9] = lung, dose 0.02 mmol/Kg body weight
[10] = lung, dose 0.04 mmol/Kg body weight
[11] = small intestinal mucosa, dose 0.02 mmol/Kg body weight
[12] = small intestinal mucosa, dose 0.04 mmol/Kg body weight

N#C[Se]Cc1ccc[se]1 [(3) SMSC, 2-selenophenyl methylene selenocynate]
Ratio Test/con (GST) [1, 3]: 1.08 | GST act. [1, 3]: 0.70 ± 0.05 μmol/min mg protein | Ratio Test/con (GST) [1, 4]: 1.06 | GST act. [1, 4]: 0.69 ± 0.09 μmol/min mg protein | Ratio Test/con (GST) [1, 5]: 0.8 | GST act. [1, 5]: 0.89 ± 0.22 μmol/min mg protein | Ratio Test/con (GST) [1, 6]: 1.01 | GST act. [1, 6]: 1.12 ± 0.19 μmol/min mg protein | Ratio Test/con (GST) [1, 7]: 0.81 | GST act. [1, 7]: 1.04 ± 0.18 ^g μmol/min mg protein | Ratio Test/con (GST) [1, 8]: 1.58 | GST act. [1, 8]: 2.02 ± 0.33 ^e μmol/min mg protein | Ratio Test/con (GST) [1, 9]: 1.18 | GST act. [1, 9]: 0.40 ± 0.03 ^f μmol/min mg protein | Ratio Test/con (GST) [1, 10]: 1.00 | GST act. [1, 10]: 0.34 ± 0.06 μmol/min mg protein | Ratio Test/con (GST) [1, 11]: 0.86 | GST act. [1, 11]: 0.19 ± 0.5 μmol/min mg protein | Ratio Test/con (GST) [1, 12]: 0.91 | GST act. [1, 12]: 0.20 ± 0.02 μmol/min mg protein | Ratio Test/con (GSH) (GSH; [7]): 0.98 | GSH conc. (GSH; [7]): 3.49 ± 0.90 μmol/gm tissue weight | Ratio Test/con (GSH) (GSH; [8]): 1.38 | GSH conc. (GSH; [8]): 4.89 ± 0.57^c μmol/gm tissue weight | Ratio Test/con (GSH) (GSH; [11]): 0.89 | GSH conc. (GSH; [11]): 1.88 ± 0.4 μmol/gm tissue weight | Ratio Test/con (GSH) (GSH; [12]): 1.00 | Ratio Test/con (UDP-GT) ([2]; dose 0.02 mmol/Kg body weight): 1.52 | UDP-GT activity (column head prints GSH conc.) ([2]; dose 0.02 mmol/Kg body weight): 6.15 ± 1.20 ^d nmol/min/mg protein | Ratio Test/con (UDP-GT) ([2]; dose 0.04 mmol/Kg body weight): 2.36 | UDP-GT activity (column head prints GSH conc.) ([2]; dose 0.04 mmol/Kg body weight): 9.56 ± 4.23 ^d nmol/min/mg protein

N#C[Se]Cc1ccc(C[Se]C#N)[se]1 [(4) SDMSC, selenophenyl-2,5-di-methylene selenocyanate]
Ratio Test/con (GST) [1, 3]: 1.13 | GST act. [1, 3]: 0.45 ± 0.02 ^g μmol/min mg protein | Ratio Test/con (GST) [1, 4]: 1.10 | GST act. [1, 4]: 0.44 ± 0.04 μmol/min mg protein | Ratio Test/con (GST) [1, 5]: 1.35 | GST act. [1, 5]: 1.05 ± 0.28 μmol/min mg protein | Ratio Test/con (GST) [1, 6]: 1.21 | GST act. [1, 6]: 0.94 ± 0.18 μmol/min mg protein | Ratio Test/con (GST) [1, 7]: 1.06 | GST act. [1, 7]: 1.20 ± 0.11 ^g μmol/min mg protein | Ratio Test/con (GST) [1, 8]: 1.50 | GST act. [1, 8]: 1.69 ± 0.18 ^e μmol/min mg protein | Ratio Test/con (GST) [1, 9]: 1.23 | GST act. [1, 9]: 0.58 ± 0.08 μmol/min mg protein | Ratio Test/con (GST) [1, 10]: 1.17 | GST act. [1, 10]: 0.55 ± 0.07 μmol/min mg protein | Ratio Test/con (GST) [1, 11]: 1.00 | GST act. [1, 11]: 0.34 ± 0.01 μmol/min mg protein | Ratio Test/con (GST) [1, 12]: 1.06 | GST act. [1, 12]: 0.36 ± 0.02 μmol/min mg protein | Ratio Test/con (GSH) (GSH; [7]): 0.93 | GSH conc. (GSH; [7]): 3.58 ± 1.86 μmol/gm tissue weight | Ratio Test/con (GSH) (GSH; [8]): 1.39 | GSH conc. (GSH; [8]): 5.34 ± 1.36 μmol/gm tissue weight | Ratio Test/con (UDP-GT) ([2]; dose 0.02 mmol/Kg body weight): 2.30 | UDP-GT activity (column head prints GSH conc.) ([2]; dose 0.02 mmol/Kg body weight): 10.17 ± 2.37 ^c nmol/min/mg protein | Ratio Test/con (UDP-GT) ([2]; dose 0.02 mmol/Kg body weight, listed as SDMSC 4): 2.67 | Ratio Test/con (UDP-GT) ([2]; dose 0.04 mmol/Kg body weight): 2.43 | UDP-GT activity (column head prints GSH conc.) ([2]; dose 0.04 mmol/Kg body weight): 10.75 ± 2.04 ^d nmol/min/mg protein
